ChEMBL document CHEMBL1130422, “A refined model for the somatostatin pharmacophore: conformational analysis of lanthionine-sandostatin analogs” (J Med Chem, 1997)
Where a SMILES comes first, the peptide text is derived from it. Bridges are numbered along the chain shown (N, C = ends). [ ]: non-standard residue; d: D form. d(aThr) = C[C@@H](O)[C@@H](N)C(=O)O

What follows are molecules tested against Somatostatin receptor type 2 (Mus musculus, UniProt P30875) (assay: Compound was tested for the inhibition of mSSTR2b).
Chain of Somatostatin receptor type 2 (P30875 whole entry): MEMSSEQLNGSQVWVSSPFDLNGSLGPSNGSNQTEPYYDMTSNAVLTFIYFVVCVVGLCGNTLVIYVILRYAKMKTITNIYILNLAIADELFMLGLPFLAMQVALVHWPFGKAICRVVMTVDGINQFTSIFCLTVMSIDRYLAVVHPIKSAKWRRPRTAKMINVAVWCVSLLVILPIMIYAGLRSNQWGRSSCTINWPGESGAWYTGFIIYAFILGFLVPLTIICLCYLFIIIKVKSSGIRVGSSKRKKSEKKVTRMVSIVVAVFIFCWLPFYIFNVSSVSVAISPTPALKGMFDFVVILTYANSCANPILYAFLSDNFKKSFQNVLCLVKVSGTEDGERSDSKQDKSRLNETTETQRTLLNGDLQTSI

IC50 [nM]	Structure (SMILES)
0.28	C[C@@H](O)[C@H](NC(=O)[C@@H]1CSSC[C@H](NC(=O)[C@H](N)Cc2ccccc2)C(=O)N[C@@H](Cc2ccccc2)C(=O)N[C@H](Cc2c[nH]c3ccccc23)C(=O)N[C@@H](CCCCN)C(=O)N[C@@H]([C@@H](C)O)C(=O)N1)C(=O)O
15.6	C[C@@H](O)[C@H](NC(=O)[C@@H]1CSC[C@H](NC(=O)[C@H](N)Cc2ccccc2)C(=O)N[C@@H](Cc2ccccc2)C(=O)N[C@H](Cc2c[nH]c3ccccc23)C(=O)N[C@@H](CCCCN)C(=O)N[C@@H]([C@@H](C)O)C(=O)N1)C(N)=O

Each molecule was assayed against T1, Somatostatin receptor type 5 (Rattus norvegicus, UniProt P30938) (assay: Compound was tested for the inhibition of rSSTR5).
T1 sequence (P30938 whole entry): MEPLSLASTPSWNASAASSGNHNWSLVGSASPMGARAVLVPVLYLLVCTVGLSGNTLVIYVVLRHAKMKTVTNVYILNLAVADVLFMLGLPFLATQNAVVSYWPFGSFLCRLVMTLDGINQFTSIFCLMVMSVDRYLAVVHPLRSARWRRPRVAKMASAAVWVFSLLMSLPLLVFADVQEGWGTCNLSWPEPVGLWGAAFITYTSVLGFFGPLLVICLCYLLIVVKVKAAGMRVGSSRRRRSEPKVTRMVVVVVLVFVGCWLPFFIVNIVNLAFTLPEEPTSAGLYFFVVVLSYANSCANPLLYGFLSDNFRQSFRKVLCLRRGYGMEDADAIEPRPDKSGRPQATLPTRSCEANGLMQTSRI

IC50 [nM]	Structure (SMILES)
1.04	C[C@@H](O)[C@@H](NC(=O)[C@H]1CSSC[C@H](NC(=O)[C@@H](N)Cc2ccccc2)C(=O)N[C@@H](Cc2ccccc2)C(=O)N[C@H](Cc2c[nH]c3ccccc23)C(=O)N[C@@H](CCCCN)C(=O)N[C@H]([C@@H](C)O)C(=O)N1)C(=O)O
5.5	C[C@@H](O)[C@H](NC(=O)[C@@H]1CSC[C@@H](NC(=O)[C@H](N)Cc2ccccc2)C(=O)N[C@H](Cc2ccccc2)C(=O)N[C@@H](Cc2c[nH]c3ccccc23)C(=O)N[C@H](CCCCN)C(=O)N[C@@H]([C@@H](C)O)C(=O)N1)C(N)=O
500	C[C@@H](O)[C@@H]1NC(=O)[C@@H](CCCCN)NC(=O)[C@H](Cc2c[nH]c3ccccc23)NC(=O)[C@@H](Cc2ccccc2)NC(=O)[C@H](NC(=O)[C@H](N)Cc2ccccc2)CSC[C@@H](C(=O)O)NC1=O
10.6	C[C@@H](O)[C@H]1NC(=O)[C@H](CCCCN)NC(=O)[C@@H](Cc2c[nH]c3ccccc23)NC(=O)[C@H](Cc2ccccc2)NC(=O)[C@@H](NC(=O)[C@@H](N)Cc2ccccc2)CSSC[C@H](C(=O)O)NC1=O (H-FCF[dW]K[d(aThr)][dC]-OH; disulfide 2-7)
